# Patent US20150328292A1, “CASPASE POLYPEPTIDES HAVING MODIFIED ACTIVITY AND USES THEREOF” (BELLICUM PHARMACEUTICALS, INC., priority 2014, published 2015)
# “Also recorded” adds a separate entry of the source. Like-named read-outs stand apart in the source and are kept apart here.
# Tests used:
# [1] = target: chimeric caspase-9 polypeptide (Homo sapiens, UniProt P55211+P62942, F37V); experiment: AP1903-triggered apoptosis/signaling of cells expressing chimeric caspase-9 polypeptide; assay type: cell-based
# Sequence of chimeric caspase-9 polypeptide (P62942 2-108 F37V limits assumed): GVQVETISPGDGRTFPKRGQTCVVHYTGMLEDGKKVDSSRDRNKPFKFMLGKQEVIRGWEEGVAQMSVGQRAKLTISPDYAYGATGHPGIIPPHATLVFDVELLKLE
# Sequence of chimeric caspase-9 polypeptide (P55211 135-416 limits assumed): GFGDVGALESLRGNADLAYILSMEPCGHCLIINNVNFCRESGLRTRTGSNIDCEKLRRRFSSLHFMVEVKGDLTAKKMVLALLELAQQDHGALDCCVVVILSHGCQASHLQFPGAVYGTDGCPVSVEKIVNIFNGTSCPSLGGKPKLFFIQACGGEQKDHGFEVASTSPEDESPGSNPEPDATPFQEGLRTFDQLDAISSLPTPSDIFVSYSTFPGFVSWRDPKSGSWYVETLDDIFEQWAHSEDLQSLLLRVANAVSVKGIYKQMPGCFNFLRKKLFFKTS
# CD3+ΔCD19+ cells = experiment: CASPALLO phase I clinical trial, AP1903 in patients with GvHD after iCasp9 T cells; assay type: in vivo, human
# human CD3+CD19+ T cells = experiment: AP1903 dose-dependent elimination in vivo of transduced T cells in NSG mice; parameters: species or system mouse; details: T cells with wild-type iCasp9, i.p., 24 hours
# Protocol: T cells were transduced with SFG-iCasp9-2A-ΔCD19 retrovirus and injected i.v. into immune deficient mice (NSG). […] After an additional 24 hours, mice were sacrificed and lymphocytes from the spleen (FIG. 61A) and peripheral blood (FIG. 61B) were isolated and analyzed by flow cytometry for the frequency of human CD3+CD19+ T cells.
# T cells were transduced with SFG-iCasp9-D330E-2A-ΔCD19 retrovirus and injected i.v. into immune deficient mice (NSG). […] After an additional 24 hours, mice were sacrificed and lymphocytes from the spleen (A) were isolated and analyzed by flow cytometry for the frequency of human CD3+CD19+ T cells.
# [2] = cited from earlier work; for safety and tolerability: healthy volunteers, 0.01-1.0 mg/kg
# HEK293T/16 cells [3] = experiment: SEAP reporter-based surrogate killing assay (basal activity and AP1903 IC50); assay type: cell-based, human; details: for relative SEAP activity Units (basal activity): no AP1903, higher SEAP = lower basal activity; for basal activity / basal signaling (in words): AP1903-independent SEAP activity, vs wild type
# In short: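 HEK293T/16 cells transiently co-transfected with iCasp9 mutant plasmid (800 ng–2 μg) and SRα-driven SEAP plasmid (500 ng) per million cells. Supernatants heat-treated 65 °C, 45 min, then SEAP read by 4-MUP hydrolysis fluorescence (ex/em 355/460 nm). Lower SEAP signal indicates higher iCasp9 activity, i.e. cell killing.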
# HEK293T/16 cells [4] = experiment: Western blot of protein expression and proteolysis; assay type: cell-based, human
# Protocol: The lysates were collected and lysed on ice for 30 min. After pelleting cell debris, protein concentrations from overlying supernatants were measured in 96-well plates with BCA™ Protein Assay as recommended by the manufacturer. 30 μg of proteins were boiled in Laemmli sample buffer (Bio-Rad, Hercules, Calif.) with 2.5% 2-mercaptoethanol for 5 min at 95° C. before being separated by Criterion TGX 10% Tris/glylcine protein gel. Membranes were probed with 1/1000 rabbit anti-human caspase-9 polyclonal antibody followed by 1/10,000 HRP-conjugated goat anti-rabbit IgG F(ab′)2 secondary antibody (Bio-Rad). Protein bands were detected using Supersignal West Femto chemiluminescent substrate. To ensure equivalent sample loading, blots were stripped at 65° C. for 1 hour with Restore PLUS Western Blot Stripping Buffer before labeling with 1/10,000 rabbit anti-actin polyclonal antibody. Unless otherwise stated, all the reagents were purchased from Thermo Scientific.
# PG13 packaging cells = assay type: cell-based
# Activated T cells = experiment: Control of T cell proliferation in vitro over 10 days with AP1903; assay type: cell-based, human; details: AP1903 on days 0 and 4, 10 days
Molecule,amount of AP1903 needed in vitro for effective signaling of cells [1] [nM],"time to normalization of bilirubin concentration (CD3+ΔCD19+ cells; patient 1, post-treatment) [h]","time to disappearance of skin rash (CD3+ΔCD19+ cells; patient 2, post treatment) [h]",time to resolution of skin and liver aGvHD (CD3+ΔCD19+ cells; patients with grade I/II aGVHD) [h],"ablation of CD3+ΔCD19+ cells (CD3+ΔCD19+ cells; within 30 minutes of infusion, 0.4 mg/kg) [%]",further reduction of CD3+ΔCD19+ cells (CD3+ΔCD19+ cells; within 24 hours),AP1903 dose sufficient to eliminate most modified T cells in vivo (human CD3+CD19+ T cells) [mg/kg],"adverse event considered possibly related ([2]; 1 volunteer at 1.0 mg/kg, facial flushing)","plasma level, % of maximal concentration ([2]; 2 hours post-dose) [%]","plasma level, % of maximal concentration ([2]; 10 hours post-dose) [%]",safety and tolerability [2],safety and tolerability ([2]; listed as API903),relative SEAP activity Units (basal activity) (HEK293T/16 cells [3]; 1 μg iCasp9 per million cells),relative SEAP activity Units (basal activity) (HEK293T/16 cells [3]; 2 μg iCasp9 per million cells),basal activity / basal signaling (in words) (HEK293T/16 cells [3]),basal activity / basal signaling (in words) (HEK293T/16 cells [3]; listed as D330A N405Q),cleavage in response to AP1903 (HEK293T/16 cells [4]),CD19 mean fluorescence intensity (MFI) of transduced PG13 cells (PG13 packaging cells),viral titers (PG13 packaging cells),T cell proliferation and survival (Activated T cells)
"CC[C@H](C(=O)N1CCCC[C@H]1C(=O)O[C@H](CCc1ccc(OC)c(OC)c1)c1cccc(OCC(=O)NCCNC(=O)COc2cccc([C@@H](CCc3ccc(OC)c(OC)c3)OC(=O)[C@@H]3CCCCN3C(=O)[C@@H](CC)c3cc(OC)c(OC)c(OC)c3)c2)c1)c1cc(OC)c(OC)c(OC)c1 (relative stereo) [AP1903, 2-Piperidinecarboxylic acid, 1-[(2S)-1-oxo-2-(3,4,5-trimethoxyphenyl)butyl]-, 1,2-ethanediylbis[imino(2-oxo-2,1-ethanediyl)oxy-3,1-phenylene[(1R)-3-(3,4-dimethoxyphenyl)propylidene]]ester, [2S-[1(R*),2R*[S*[S*[1(R*),2R*]]]]]-(9Cl)]",0.1 to 10,≤ 24,≤ 24,≤ 24,> 90,further log reduction,0.5,vasodilatation,~7,~1,proven safe in healthy volunteers; also recorded: safe and well tolerated at all dose levels; also recorded: proven safe at the required dose; also recorded: substantially no significant adverse effects,No serious adverse events,,,,,,,,
"D330A-N405Q: ΔCasp9 (res. 135-416) D330A N405Q, SEQ ID NO: 28 (protein) GFGDVGALESLRGNADLAYILSMEPCGHCLIINNVNFCRESGLRTRTGSNIDCEKLRRRFSSLHFMVEVKGDLTAKKMVLALLELARQDHGALDCCVVVILSHGCQASHLQFPGAVYGTDGCPVSVEKIVNIFNGTSCPSLGGKPKLFFIQACGGEQKDHGFEVASTSPEDESPGSNPEPDATPFQEGLRTFDQLAAISSLPTPSDIFVSYSTFPGFVSWRDPKSGSWYVETLDDIFEQWAHSEDLQSLLLRVANAVSVKGIYKQMPGCFQFLRKKLFFKTS",,,,,,,,,,,,,205772,174366,intermediate; also recorded: lower basal signaling compared to the wild-type caspase-9,low to undetectable basal activity,impaired cleavage,,,
"N405Q: ΔCasp9 (res. 135-416) N405Q, SEQ ID NO: 26 (protein) GFGDVGALESLRGNADLAYILSMEPCGHCLIINNVNFCRESGLRTRTGSNIDCEKLRRRFSSLHFMVEVKGDLTAKKMVLALLELARQDHGALDCCVVVILSHGCQASHLQFPGAVYGTDGCPVSVEKIVNIFNGTSCPSLGGKPKLFFIQACGGEQKDHGFEVASTSPEDESPGSNPEPDATPFQEGLRTFDQLDAISSLPTPSDIFVSYSTFPGFVSWRDPKSGSWYVETLDDIFEQWAHSEDLQSLLLRVANAVSVKGIYKQMPGCFQFLRKKLFFKTS",,,,,,,,,,,,,179081,175529,,,impaired cleavage,higher levels of CD19; also recorded: enhanced CD19 mean fluorescence intensity; also recorded: higher CD19 MFIs than the other cohorts,higher viral titers,indistinguishable from wild type caspase-9 polypeptide or D330A
